Results on four substances are retold here after paper PMC6495379, “Reiterative Synthesis by the Ribosome and Recognition of the N-Terminal Formyl Group by Biosynthetic Machinery Contribute to Evolutionary Conservation of the Length of Antibiotic Microcin C Peptide Precursor” (mBio, 2019).

The subject of one assay is E. coli MccB. In words: In vitro adenylation of MccA peptides by MccB, HPLC read-out. The note with it: 500 μM peptide, 5 μM MccB, 28°C, 20 min, HPLC 260 nm; for Yield of adenylated peptide (unformylated peptides): ATP. The format is biochemical, Escherichia coli. The protocol:
In previous work, it was shown that E. coli MccB is able to modify a wide range of substrates in vivo and in vitro, including MBP protein with attached A7 peptide ([14]). To test MccB activity on elongated substrates encoded by pA11 and pA15, we incubated purified MccB with ATP and chemically synthesized A11 and A15 peptides and measured adenylated peptide yields by high-pressure liquid chromatography (HPLC) (Fig. 6). […] We next repeated the experiment with N-terminally formylated versions of each peptide that correspond to the products of ribosomal synthesis. […] We conclude that under our conditions, the presence of the formyl group on the N-terminal methionine residue selectively amplified the yields of MccA heptapeptide adenylation compared to adenylation yields of longer peptides A11 and A15.
FIG 6 In vitro adenylation of MccA peptides of different lengths by MccB. HPLC traces (260 nm) showing product formation after incubation of equal molar amounts of A7 (MRTGNAN), A11 (MGGGMRTGNAN), and A15 (MASTAGGGMRTGNAN) peptides and their N-terminally formylated variant peptides (marked with the f prefix) with MccB in the reaction buffer for 20 min at 28°C.
For adenylation efficiency measurements, 500 μM peptide was incubated with 5 μM MccB at 28°C for 20 min, and then the reaction was quenched with 0,1% TFA and analyzed using C18 reversed-phase chromatography (Symmetry C18, 5 μm, 4.6 mm by 150 mm; Waters). A 0% to 15% linear gradient of acetonitrile in 0.1% TFA was applied for elution. The identities of the compounds in the chromatographic fractions were confirmed by MALDI-TOF MS.

A further assay has as its system some strains of E. coli. To be noted: cited from earlier work. The source says:
Thus, the minimal set of three genes in an mcc cluster, encoding the precursor peptide, the adenylating enzyme, and the export pump protein, should be sufficient for production of McC-like antibacterial compounds. Bioinformatics searches reveal that genes coding for MccB-like proteins can be found in various bacteria that are phylogenetically distant from E. coli ([10]).

Where [1] appears, read: formylated versus unformylated peptide.

* marks the point of attachment. For = O=C*

Turning to “MASTAGGGMRTGNAN [A15, 15-amino-acid MccA-based peptide […]]”, in the assay on E. coli MccB (setting [1]), the “Decrease in adenylated product yield on N-terminal formylation, compared to the unformylated peptide” value is on record as about 3 fold. Further, in the assay on E. coli MccB, the “Yield of adenylated peptide (unformylated peptides)” value (“Yield of adenylated peptide” below) was “comparable yields”.
In the case of “MGGGMRTGNAN [A11, 11-amino-acid MccA-based peptide […]]”, the “Increase in adenylated product yield on N-terminal formylation, compared to the unformylated peptide” value with E. coli MccB (setting [1]) is listed as about 2 fold. The “Yield of adenylated peptide” value with E. coli MccB is reported as “comparable yields”.
For “MRTGNAN [A7, 7-amino-acid McC precursor peptide MRTGNAN, chemically synthesized]”, the “Increase in adenylated product yield on N-terminal formylation, compared to the unformylated peptide” value was “approximately 8 fold” with E. coli MccB (setting [1]) and about 10 fold with E. coli MccB (formylated versus unformylated peptide, listed as heptapeptide MccA). In addition, in the assay with E. coli MccB, the “Yield of adenylated peptide” value was “comparable yields”.
On to “Microcin C (For-MRTGNAN-{adenylate (N-P bond, aminopropyl on phosphoramidate)}) [McC, heptapeptide adenylate antibiotic, formylated, with aminopropyl on the phosphoramidate]”, for which the “Increase of toxicity of McC by the aminopropyl moiety” value in the assay on some strains of E. coli is 4- to 10 fold.
